# Source: article PMC8998978, “Toward a Treatment of Cancer: Design and In Vitro/In Vivo Evaluation of Uncharged Pyrazoline Derivatives as a Series of Novel SHP2 Inhibitors” (International Journal of Molecular Sciences, 2022)
# Key:
# [1] = tested on: RAS/MAPK signaling pathway in HCT116 cells; assay: RAS activation assay and p-Erk Western blotting; type: cell-based, human; conditions: HCT116, 4o 2.5, 5 and 10 μM, 12 h, dose-dependent, versus DMSO
# Procedure: HCT116 cells were harvested, lysed on ice in RIPA buffer (Beyotime Institute of Biotechnology, Shanghai, China) and boiled. Protein concentration was measured by BCA protein assay kit (Beyotime Institute of Biotechnology, Shanghai, China). The protein samples were separated by SDS-PAGE and transferred to the membrane (Pall, New York, NY, USA). Afterwards, the membrane was immunoblotted with the corresponding primary antibody (C-parp (#5625), C-cas9 (#9505), C-cas3 (#9661), Bcl-2 (#4223), Bax (#5023), SHP2 (#3752), P-Erk1/2 (#9101) and Erk1/2 (#9102), 1:1000, Cell Signaling Technology, Danvers, MA, USA; Tubulin (#ET1602-4), 1:5000, HUABIO, Hangzhou, China) and the appropriate HRP-conjugated secondary antibody, and determined with ECL detection reagent (Thermo Scientific, Waltham, MA, USA).
# Active RAS (RAS-GTP) was pulled down from HCT116 cells. Cells were seeded in 6-well plates and treated with different concentrations of 4o for 12 h after overnight serum starvation. Cells were stimulated with 100 ng/mL hEGF for 5 min before cell lysis. On the basis of protein extraction and quantification, RAS activation assay biochem kit (Cytoskeleton Inc., Denver, CO, USA) was used for detection according to the requirements of manufacturers.
# [2] = target: T1, recombinant human SHP2 protein (Homo sapiens, UniProt Q06124); assay: Inhibition type of SHP2 (double reciprocal plot, pNPP); type: biochemical; conditions: 4o 0, 0.5, 1, 2 µM; various pNPP concentrations
# T1 sequence (Q06124 1-593): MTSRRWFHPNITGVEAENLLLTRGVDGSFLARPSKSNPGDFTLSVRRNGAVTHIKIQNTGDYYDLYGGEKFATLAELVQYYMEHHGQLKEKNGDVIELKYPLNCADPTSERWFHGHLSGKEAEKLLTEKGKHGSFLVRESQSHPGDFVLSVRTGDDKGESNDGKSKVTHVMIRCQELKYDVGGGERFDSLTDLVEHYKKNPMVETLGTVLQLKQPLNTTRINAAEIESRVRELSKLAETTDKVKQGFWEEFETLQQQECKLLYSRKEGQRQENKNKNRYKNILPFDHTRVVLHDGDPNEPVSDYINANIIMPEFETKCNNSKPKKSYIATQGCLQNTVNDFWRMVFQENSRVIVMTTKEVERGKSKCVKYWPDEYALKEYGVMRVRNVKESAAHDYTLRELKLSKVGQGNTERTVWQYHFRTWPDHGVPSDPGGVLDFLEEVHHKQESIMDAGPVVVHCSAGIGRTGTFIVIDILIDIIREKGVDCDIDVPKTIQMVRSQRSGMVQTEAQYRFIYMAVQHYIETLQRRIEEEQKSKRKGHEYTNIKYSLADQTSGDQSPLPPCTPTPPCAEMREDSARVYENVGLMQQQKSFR
# Procedure: Inhibition kinetic studies were performed with various concentrations of pNPP in the absence or presence of inhibitors. The experimental results were analyzed using double reciprocal plotting to evaluate the type of inhibition.
# The experimental process was similar to the SHP2 inhibition assay. In the assay, the initial rates at a series of pNPP concentrations were determined at various fixed inhibitor concentrations of 4o (0 µM, 0.5 µM, 1 µM and 2 µM) as described above. The values of 1/[S] and 1/[V] were obtained from the substrate concentration and initial reaction rate, and were plotted on the x-axis and y-axis, respectively. The inhibition type of SHP2 was determined according to the intersection characteristics of the obtained approximate line.
# [3] = target: T1, recombinant human SHP2 protein; assay: SHP2 inhibition assay (pNPP substrate); type: biochemical; conditions: pNPP 4 mM, SHP2 240 nM, 37 °C, 30 min; means ± SD
# Procedure: pGEX-4T1 SHP2 WT (plasmid #8322) was purchased from Addgene. […] Then, 0.2 mM IPTG (Sangon Biotech, Shanghai, China) was added to induce the expression of protein at 30 °C for 4 h followed by centrifugation and cells collection. Cells were then broken by ultrasound in lysis buffer (20 mM Tris–HCl (pH 8.0), 100 mM KCl, 10% glycerol, 1 mM DTT, 0.5% Triton X-100) on ice. The supernatant was collected by centrifugation at 10,000× g for 15 min at 4 °C. The BeaverBeads GSH (Beaver Biosciences Inc., Guangzhou, China) washed by lysis buffer were incubated with the supernatant for 2 h at 4 °C. […] Then, the experiment was performed in a final volume of 100 μL containing 10 mM Tris–HCl (pH 7.5), 25 mM NaCl, 1 mM EDTA and 4 mM pNPP in a 96-well plate at 37 °C for 30 min. The amount of product p-nitrophenol was determined by the absorbance at 405 nm in a multimode reader (Berthold Technologies GmbH & Co.KG, Bad Wildbad, Baden Württemberg, Germany). The IC50 value was calculated by GraphPad Prism 7.0 software (GraphPad Inc, San Diego, CA, USA).
smiles,measurement,setting,value
"CCOc1ccc(Oc2ccc(C3=NN(C4=NC(=O)CS4)C(c4cc(O)c(O)c(Br)c4Br)C3)cc2)cc1 (stereo not drawn) [Compound 4o, 2-(5-(2,3-dibromo-4,5-dihydroxyphenyl)-3-(4-(4-ethoxyphenoxy)phenyl)-4,5-dihydro-1H-pyrazol-1-yl)thiazol-4(5H)-one]",Levels of RAS-GTP and p-Erk,[1],decreased
same,Inhibition type of SHP2,[2],competitive SHP2 inhibitor
same,IC50,[3],1.56 ± 0.25 µM
